≈ marks a conversion by molar mass, not a printed value.
Experiments:
Klebsiella pneumoniae 20 = assay: Minimal inhibitory concentration (MIC) by agar streak, HI-agar, 37° C., 20 hours; format: cell-based; conditions: 10^6 viable cells per ml, 37° C. for 20 hours
Experimental: (§1) One loopful of an overnight culture of each test strain in Trypticase-soy broth (10^6 viable cells per ml.) was streaked on heart infusion agar (HI-agar) containing graded concentrations of antibiotics, and the minimal inhibitory concentration (MIC) was expressed in terms of μg/ml after incubation at 37° C. for 20 hours.

Proteus mirabilis 18 = assay: as above; format: cell-based; conditions: 10^6 viable cells per ml, 37° C. for 20 hours
Experimental: as §1

## CO/N=C(\C(=O)NC1C(=O)N2C(C(=O)O)=C(COC(=O)N3CCN(C)CC3)CSC12)c1csc(N)n1 (stereo not shown) [(1)]
Klebsiella pneumoniae 20
  MIC: 0.1 µg/mL (≈ 0.185 µM)
Proteus mirabilis 18
  MIC: 0.05 µg/mL (≈ 0.0927 µM)

## CO/N=C(\C(=O)NC1C(=O)N2C(C(=O)O)=C(COC(=O)N3CCN(C)CC3)CSC12)c1nsc(N)n1 (stereo not shown) [(2)]
Klebsiella pneumoniae 20
  MIC: 0.05 µg/mL (≈ 0.0925 µM)
Proteus mirabilis 18
  MIC: 0.2 µg/mL (≈ 0.37 µM)

— patent US4327093A, “3,7-Disubstituted-2 or 3-cephem-4-carboxylic acid compounds” (Fujisawa Pharmaceutical Co., Ltd., priority 1978, dated 1982)
